Measurements published in patent US9387214B2, “Method of identifying therapies for pulmonary hypertension” (United Therapeutics Corporation, priority 2012, dated 2016).
Entries after “also recorded” stand apart in the source; their conditions may differ.

Tested on: human erythrocytes
Test: Erythrocyte ATP release
Type: cell-based
Experimental: Erythrocyte ATP release was measured in both the absence and presence of (a) the PGI2 agonist, treprostinil in the form of UT-15 or its vehicle, saline, and (b) alone or in combination with the selective PDE5 inhibitor, zapranist (ZAP, 10 μM).

Structure (SMILES)	ATP release from erythrocytes (UT-15 30 nM alone, n=7)	ATP release from erythrocytes (UT-15 30 nM, cells pretreated with ZAP 10 μM, n=7)	ATP release from erythrocytes (UT-15 100 nM alone, n=7)	ATP release from erythrocytes (UT-15 100 nM, cells pretreated with ZAP 10 μM, n=7)	ATP release from erythrocytes compared to controls (UT-15 1 uM alone, n=7)	ATP release from human erythrocytes (UT-15 alone at 10 to 100 nM, FIG. 3)	ATP release from human erythrocytes (UT-15 alone, FIG. 2, concentration not printed in legend)	potentiation of UT-15-induced increases in ATP release (FIG. 2, concentration not printed in legend)	potentiation of UT-15-induced ATP release (ZAP 10 μM pretreatment, UT-15 1 uM, P<0.05)
CCCCC[C@H](O)CC[C@@H]1[C@H]2Cc3cccc(OCC(=O)O)c3C[C@H]2C[C@H]1O [UT-15, treprostinil]	no ATP release was detected	induce a response; also recorded: ATP release was stimulated	no ATP release was detected	induce a response; also recorded: ATP release was stimulated	increase in ATP release	does not stimulate ATP release	stimulates increases in ATP release		
CCCOc1ccccc1-c1nc2nn[nH]c2c(=O)[nH]1 [zapranist]								potentiated	potentiated
